Results published in patent publication US11458189B2, “Cytoprotective drugs” (BALMES TRANSPLANTATION, priority 2017, dated 2022).
Starred links: 1 amine or outer side, 2 acyl side, 3 side chain; linkers in the order of their positions; H or OH if unused. Positions of bridges follow the written chain, without caps; N, C: chain ends. Non-standard residues stand in square brackets, D forms with d. Residues, ends and D or L forms follow the SMILES beside them. *: point of attachment. hTyr(3S-OH,4S-OH,3'-OSO3H) = N[C@H](C(=O)O)[C@H](O)[C@@H](O)c1ccc(O)c(OS(=O)(=O)O)c1; Orn(4R-OH,5R-OH) = O=C([C@H](C[C@@H](O)[C@@H](O)N[*:3])N[*:1])[*:2]; Pro(3S-OH,4S-Me) = C[C@H]1CN[C@H](C(=O)O)[C@H]1O; X1 = CCCCCOc1ccc(-c2cc(-c3ccc(C(=O)*)cc3)no2)cc1; Gln(3R-OH) = NC(=O)C[C@@H](O)[C@H](N)C(=O)O; Hyp = O=C(O)[C@@H]1C[C@@H](O)CN1

System: Human Astrocytes (HA)
Experiment: Oxygen and glucose deprivation followed by replenishment, cell survival (calcein AM), HA
Type: cell-based
Method: Anidulafungin and micafungin were tested on Human Renal Glomerular Endothelial Cells (HRGEC, Innoprot P10665), on Human Renal Proximal Tubular Epithelial Cells (HRPTEpiC, Innoprot P10662), on Human Astrocytes (HA, caltag SC-1800), on Human Cardiac Microvascular Endothelial Cells (HCMEC, Caltag SC-6000), on Human Hepatic Sinusoidal Endothelial Cells (HHSEC, Caltag SC-5000), on Rat Primary Kidney Glomerular Endothelial cells (Cellbiologics, RN-6014G) and on Bovine Brain Microvascular Endothelial Cells (BBMEC, Caltag SC-B100).
In a first phase, these isolated, purified and cryopreserved cells are thawed and multiplied according to the supplier's recommendations in T75 or T175 flasks pre-coated with 2 μg of fibronectin/[…] (CORNING) for HRGEC, HCMEC, HHSEC and BBMEC, or 2 μg poly-L-lysin/cm^2 (Caltag SC-0403) for HRPTEpiC and HA, or 15 mL/flask 175 cm^2 gelatin-based solution (Cellbiologics) in the presence of endothelial cell supplemented growth medium ECM (P60104, INNOPROT, Caltag, SC-1001) for HRGEC, HCMEC, HHSEC, RPKGEC or BBMEC, or astrocyte cell supplemented growth medium AM (Caltag SC-1801) for HA or epithelial cell supplemented growth medium EpiCM (P60106, INNOPROT) for HRPTEpiC, at 37° C. under 5% CO2 and saturated humidity until their confluency. They are then harvested by trypsinization according to the method described by the supplier for exactly 5 minutes and then reseeded in new flasks a maximum of three times.
To carry out the oxygen and glucose deprivation test followed by their replenishment, the cells will be seeded in 96-well black plates with transparent flat bottom (GREINER). Once a sufficient number of cells has been obtained to allow seeding of 2000 to 15000 cells per well of 96-well plates depending on the cell type, the cells are seeded in these 96-well plates previously coated with an extracellular matrix as listed above for the flasks. The cells are cultured for 5 to 8 days according to the cell type, in the presence of the same growth medium as in the flask as described above except for HRGEC and HRPTEpiC for which DMEM (DUTSCHER) with 1 g/L of supplemented glucose is used, at 37° C. under 5% CO2 and saturated humidity to obtain confluency.
On the first day of oxygen and glucose deprivation, (5th, 6th, 7th or 8th day of culture), the culture conditions are drastically changed. The medium of all plates is removed and replaced by DMEM (DUTSCHER) medium without glucose and supplemented only with 1% penicillin-streptomycin (DUTSCHER). Anidulafungin or micafungin dissolved in dimethyl sulfoxide (DMSO) is then added to each well at the desired concentration, resulting in a maximum of 1% DMSO, and the plates are placed under hypoxia at <1% 02 and 5% CO2 at 37° C. for 24 hours of culture. Each compound was tested in a concentration range.
After 24 hours, the growth medium is changed and replaced by a richer medium, DMEM (DUTSCHER) at 1 g/L glucose and 2% FBS (INNOPROT) and 1% penicillin-streptomycin (DUTSCHER). These media will have been pre-equilibrated at 37° C. in advance. The cells are then returned to culture at 37° C. under 20% 02 and 5% CO2 for 22h.
After 22 hours of reoxygenation, the potential protective effect of anidulafungin or micafungin is measured by a cell viability test using calcein AM (CORNING), which is a dye substrate. The calcein AM can easily cross the cell membrane of the viable cells. The AM ester groups mask the part of the molecule that chelates calcium. Once inside the cells, the (non-fluorescent) calcein AM is hydrolyzed to (fluorescent) calcein by endogenous esterases. The resulting calcein molecule binds to calcium inside the cell and remains trapped inside the cell. These molecules emit strong green fluorescence when subjected to […] of a particular wavelength (495 nm). Since dead cells lack esterase activity, only living cells are labelled.
This cell viability test is performed in two steps. […]

CCCCCOc1ccc(-c2cc(-c3ccc(C(=O)N[C@H]4C[C@@H](O)[C@@H](O)NC(=O)[C@@H]5[C@@H](O)[C@@H](C)CN5C(=O)[C@H]([C@H](O)CC(N)=O)NC(=O)[C@H]([C@H](O)[C@@H](O)c5ccc(O)c(OS(=O)(=O)O)c5)NC(=O)[C@@H]5C[C@@H](O)CN5C(=O)[C@H]([C@@H](C)O)NC4=O)cc3)no2)cc1 [Micafungin, {5-[(1S,2S)-2-[(3S,6S,9S,11R,15S,18S,20R,21R,24S,25S,26S)-3-[(1R)-2-carbamoyl-1-hydroxyethyl]-11,20,21,25-tetrahydroxy-15-[(1R)-1-hydroxyethyl]-26-methyl-2,5,8,14,17,23-hexaoxo-18-[(4-{5-[4-(pentyloxy)phenyl]-1,2-oxazol-3-yl}benzene)amido]-1,4,7,13,16,22-hexaazatricyclo[22.3.0.0]heptacosan-6-yl]-1,2-dihydroxyethyl]-2-hydroxyphenyl}oxidanesulfonic acid] (X1-[Orn(4R-OH,5R-OH)]T[Hyp][hTyr(3S-OH,4S-OH,3'-OSO3H)][Gln(3R-OH)][Pro(3S-OH,4S-Me)]; lactam 1-C)
Globalfluo assay 1 ([Micafungin] log μM 0): 11119980 arbitrary units
Globalfluo assay 2 ([Micafungin] log μM 0): 10122420 arbitrary units
Globalfluo assay 3 ([Micafungin] log μM 0): 9942897 arbitrary units
Mean globalfluo ([Micafungin] log μM 0): 10395099 arbitrary units
Survival rate (%) ([Micafungin] log μM 0): 2%
Globalfluo assay 1 ([Micafungin] log μM 0.4771213): 10184240 arbitrary units
Globalfluo assay 2 ([Micafungin] log μM 0.4771213): 11122790 arbitrary units
Globalfluo assay 3 ([Micafungin] log μM 0.4771213): 12211830 arbitrary units
Mean globalfluo ([Micafungin] log μM 0.4771213): 11172953 arbitrary units
Survival rate (%) ([Micafungin] log μM 0.4771213): 6%
Globalfluo assay 1 ([Micafungin] log μM 0.7781513): 12145620 arbitrary units
Globalfluo assay 2 ([Micafungin] log μM 0.7781513): 12627660 arbitrary units
Globalfluo assay 3 ([Micafungin] log μM 0.7781513): 12964960 arbitrary units
Mean globalfluo ([Micafungin] log μM 0.7781513): 12579413 arbitrary units
Survival rate (%) ([Micafungin] log μM 0.7781513): 14%
Globalfluo assay 1 ([Micafungin] log μM 0.90309): 12128260 arbitrary units
Globalfluo assay 2 ([Micafungin] log μM 0.90309): 10787240 arbitrary units
Globalfluo assay 3 ([Micafungin] log μM 0.90309): 13139350 arbitrary units
Mean globalfluo ([Micafungin] log μM 0.90309): 12018283 arbitrary units
Survival rate (%) ([Micafungin] log μM 0.90309): 11%
Globalfluo assay 1 ([Micafungin] log μM 1): 15956640 arbitrary units
Globalfluo assay 2 ([Micafungin] log μM 1): 14291510 arbitrary units
Globalfluo assay 3 ([Micafungin] log μM 1): 16904820 arbitrary units
Mean globalfluo ([Micafungin] log μM 1): 15717657 arbitrary units
Survival rate (%) ([Micafungin] log μM 1): 32%
Globalfluo assay 1 ([Micafungin] log μM 1.079181): 12974980 arbitrary units
Globalfluo assay 2 ([Micafungin] log μM 1.079181): 13357070 arbitrary units
Globalfluo assay 3 ([Micafungin] log μM 1.079181): 13693180 arbitrary units
Mean globalfluo ([Micafungin] log μM 1.079181): 13341743 arbitrary units
Survival rate (%) ([Micafungin] log μM 1.079181): 18%
Globalfluo assay 1 ([Micafungin] log μM 1.176091): 15116230 arbitrary units
Globalfluo assay 2 ([Micafungin] log μM 1.176091): 14430130 arbitrary units
Globalfluo assay 3 ([Micafungin] log μM 1.176091): 15740520 arbitrary units
Mean globalfluo ([Micafungin] log μM 1.176091): 15095627 arbitrary units
Survival rate (%) ([Micafungin] log μM 1.176091): 28%
Globalfluo assay 1 ([Micafungin] log μM 1.30103): 11900350 arbitrary units
Globalfluo assay 2 ([Micafungin] log μM 1.30103): 13780590 arbitrary units
Globalfluo assay 3 ([Micafungin] log μM 1.30103): 15553770 arbitrary units
Mean globalfluo ([Micafungin] log μM 1.30103): 13744903 arbitrary units
Survival rate (%) ([Micafungin] log μM 1.30103): 21%
Globalfluo assay 1 ([Micafungin] log μM 1.477121): 14577460 arbitrary units
Globalfluo assay 2 ([Micafungin] log μM 1.477121): 14402140 arbitrary units
Globalfluo assay 3 ([Micafungin] log μM 1.477121): 13825080 arbitrary units
Mean globalfluo ([Micafungin] log μM 1.477121): 14268227 arbitrary units
Survival rate (%) ([Micafungin] log μM 1.477121): 24%
Globalfluo assay 1 ([Micafungin] log μM −0.5228788): 9708125 arbitrary units
Globalfluo assay 2 ([Micafungin] log μM −0.5228788): 10748420 arbitrary units
Globalfluo assay 3 ([Micafungin] log μM −0.5228788): 10103750 arbitrary units
Mean globalfluo ([Micafungin] log μM −0.5228788): 10186765 arbitrary units
Survival rate (%) ([Micafungin] log μM −0.5228788): 1%
Globalfluo assay 1 ([Micafungin] log μM −1): 12091240 arbitrary units
Globalfluo assay 2 ([Micafungin] log μM −1): 10337500 arbitrary units
Globalfluo assay 3 ([Micafungin] log μM −1): 9946542 arbitrary units
Mean globalfluo ([Micafungin] log μM −1): 10791761 arbitrary units
Survival rate (%) ([Micafungin] log μM −1): 4%
Globalfluo assay 1 ([Micafungin] log μM −2): 9536623 arbitrary units
Globalfluo assay 2 ([Micafungin] log μM −2): 9993250 arbitrary units
Globalfluo assay 3 ([Micafungin] log μM −2): 10712930 arbitrary units
Mean globalfluo ([Micafungin] log μM −2): 10080934 arbitrary units
Survival rate (%) ([Micafungin] log μM −2): 0%
